Reference: patent publication EP2118137B1, “PEPTIDES AND POLYPEPTIDES WITH IMPROVED STABILITY USEFUL IN THE REGENERATION OF THE NERVOUS SYSTEM” (Neuronax, priority 2006, dated 2011)
Entries after “also recorded” stand apart in the source; their conditions may differ. One block for each compound: values may come before it. Square brackets hold non-standard residues; d marks the D form. Peptide text beside a SMILES is read from it. 2Nal = N[C@@H](Cc1ccc2ccccc2c1)C(=O)O; Lys(iPr) = CC(C)NCCCC[C@H](N)C(=O)O; Abu = CC[C@H](N)C(=O)O

Tests used:
[1] = Stability of peptides in aqueous solution (HPLC purity on storage); assay type: physicochemical; conditions: 22°C, 50% relative humidity, HPLC after 0, 3, 7, 11 and 22 days
Method: Les peptides synthétiques ont été mis en solution aqueuse (1,5 mg de peptide dissout dans 1000 µL d'eau stérile).
Leur pureté a été testée par HPLC, elle était d'au moins 97,0%.
Ces solutions ont ensuite été diluées : à 0,4 mL de chacune de ces solutions, on a ajouté 1,1 mL d'eau purifiée.
Ces solutions ont été placées en étuve à 22°C et 50% d'humidité relative, et analysées après : 0, 3, 7, 11 et 22 jours.
L'analyse a été faite par HPLC en gradient de phase inverse à une concentration de 0,4 mg/mL, avec les paramètres suivants : - cartouche Symétrie RP18 (Waters) 125 x 4,6 mm - phases mobiles A : H2O + TFA 0.1 % (w/v) B : Acétonitrile + TFA 0.1 % (v/v) - détection : 210 nm - débit : 1 ml/min - volume d'injection : 20 µl de solution (soit 8 µg de peptide) - gradient : […]
Les échantillons ont été placés en étuve à 22 °C, 50 % d'humidité relative et analysés à : 0 jours, 3 jours, 7 jours, 11 jours et 22 jours.
Les résultats sont présentés dans le Tableau 1 et sur la Figuré 1.
Le paramètre « TR » exprime le temps de rétention du peptide en minutes dans la colonne de HPLC.
Le paramètre « Pureté » exprimé la pureté du peptide en % tel que déterminé par HPLC.
La colonne « Impuretés : TR est % » indique pour le pic supplémentaire le plus intense, le temps de rétention en minutes et le pourcentage en masse. La colonne SEQ indique le numéro de la séquence (SEQ ID N° X).

[2] = test system: cellules de la lignée B104; experiment: Morphological differentiation and neurite outgrowth of B104 cells; assay type: cell-based, rat
Excerpt: L'activité biologique des différents peptides a été analysée par ajout de chacun des peptides dans des cultures de cellules nerveuses et suivi des modifications morphologiques de ces cellules.
Des cellules de la lignée B104, issues de neuroblastome de rat, sont cultivées à raison de 1000 cellules par puits dans des plaques de 48 puits préalablement recouverts de poly-lysine (fourni par Sigma-Aldrich), dans du milieu de Eagle modifié par Dubelco (DMEM), supplémenté de glutamine et d'antibiotique, et additionné de 10% de sérum de veau foetal pendant la phase d'adhésion. Le milieu est ensuite remplacé par un nouveau milieu DMEM ne contenant pas de sérum et permettant la différenciation des cellules. Après traitement, c'est-à-dire après ajout du composé à tester, les cellules sont maintenues en culture à 37°C sous une atmosphère à 10% de CO2. L'évolution de la morphologie cellulaire et la prolifération sont suivies par examen microscopique en contraste de phase chaque jour sur la période de culture. La différenciation cellulaire, et en particulier l'effet sur la pousse neuritique, est alors mesurée.

[3] = test system: souris avec lésion ischémique partielle; experiment: Mouse partial ischemic spinal cord lesion, functional evaluation of walking; assay type: in vivo; conditions: partial ischemic lesion causing paralysis
Excerpt: Une première caractérisation in vivo des phénomènes de repousse neuritique et de survie neuronale a été effectuée sur deux modèles d'animaux différents dans le cas du trauma de la moelle épinière (réparation de la moelle épinière après rupture).

cellules nerveuses = conditions: added daily to the culture medium at its optimal dose; cited from earlier work
cellules B104 = conditions: cited from earlier work

- stabilité en solution aqueuse [1]: stabilité en solution améliorée
Compound: CC[C@H](NC(=O)[C@@H](N)Cc1c[nH]c2ccccc12)C(=O)NCC(=O)N[C@@H](Cc1c[nH]c2ccccc12)C(=O)N[C@@H](CO)C(=O)N[C@@H](CO)C(=O)N[C@@H](CS)C(=O)N[C@@H](CO)C(=O)N[C@@H](CCCNC(=N)N)C(=O)N[C@@H](CO)C(=O)O [SEQ ID N°7, W-Abu-G-W-S-S-C-S-R-S] (H-W[Abu]GWSSCSRS-OH)

Compound: CC[C@H](NC(=O)[C@H](CO)NC(=O)[C@H](CO)NC(=O)[C@H](Cc1c[nH]c2ccccc12)NC(=O)CNC(=O)[C@H](CO)NC(=O)[C@@H](N)Cc1c[nH]c2ccccc12)C(=O)N[C@@H](CO)C(=O)N[C@@H](CCCNC(=N)N)C(=O)N[C@@H](CO)C(N)=O [NH2-W-S-G-W-S-S-Abu-S-R-S-NH2] (H-WSGWSS[Abu]SRS-NH2)
- induction de la pousse neuritique ([2]; B104 cells): s'est montré actif

- stabilité en solution aqueuse [1]: stabilité en solution améliorée
Compound: CC[C@H](NC(=O)[C@H](CO)NC(=O)[C@H](CO)NC(=O)[C@H](Cc1c[nH]c2ccccc12)NC(=O)CNC(=O)[C@H](CO)NC(=O)[C@@H](N)Cc1c[nH]c2ccccc12)C(=O)N[C@@H](CO)C(=O)N[C@@H](CCCNC(=N)N)C(=O)N[C@@H](CO)C(=O)O [SEQ ID N°4, W-S-G-W-S-S-Abu-S-R-S] (H-WSGWSS[Abu]SRS-OH)

- stabilité en solution aqueuse [1]: stabilité en solution améliorée
Compound: N=C(N)NCCC[C@H](NC(=O)[C@H](CO)NC(=O)[C@H](CS)NC(=O)[C@H](CO)NC(=O)[C@H](CO)NC(=O)[C@H](Cc1c[nH]c2ccccc12)NC(=O)CNC(=O)[C@H](CO)NC(=O)[C@@H](N)Cc1ccc2ccccc2c1)C(=O)N[C@@H](CO)C(=O)O [SEQ ID N°8, L-Nal2-S-G-W-S-S-C-S-R-S] (H-[2Nal]SGWSSCSRS-OH)

- stabilité en solution aqueuse [1]: stabilité en solution améliorée
Compound: CC[C@H](NC(=O)[C@H](CCCNC(=N)N)NC(=O)[C@H](CO)NC(=O)[C@H](CS)NC(=O)[C@H](CO)NC(=O)[C@H](CO)NC(=O)[C@H](Cc1c[nH]c2ccccc12)NC(=O)CNC(=O)[C@H](CO)NC(=O)[C@@H](N)Cc1c[nH]c2ccccc12)C(=O)O [SEQ ID N°5, W-S-G-W-S-S-C-S-R-Abu] (H-WSGWSSCSR[Abu]-OH)

Compound: W-S-G-W-S-S-C-S-R-S-C-G (WSGWSSCSRSCG) [SEQ ID N°1, séquence la plus représentative d'un motif TSR de la SCO-spondine]
- activité régénératrice (évaluation fonctionnelle au niveau de la marche) [3]: activité régénératrice
- stabilité en solution aqueuse [1]: se dégrade plus vite; also recorded: diminue en solution aqueuse avec le temps
- réponse des cellules B 104 (effet dose-réponse) [2]: proportionnelle à la concentration de peptide
- étalement du corps cellulaire ([2]; 24 hours after adding the peptides): cet effet est présent
- incidence du remplacement de l'extrémité carboxyterminale par une extrémité aminée sur l'effet du peptide ([2]; B104 cells): aucune incidence
- nombre de neurites par cellule ([2]; after 3 days of culture): effet inducteur de la pousse neuritique
- pousses neuritiques ([2]; after 3 days of culture): pousses neuritiques importantes
- effet du peptide avec ajout quotidien (cellules nerveuses): l'effet observé était accentué
- pousses neuritiques (cellules B104; after three days of culture, without serum): pousses neuritiques importantes
- différenciation cellulaire (cellules B104): induit la pousse neuritique et l'agrégation cellulaire
- nombre de neurites (cellules B104): induit une augmentation
- taille du neurite le plus long (cellules B104): induit une augmentation
- regroupements cellulaires (agrégation) (cellules B104; from 3 or 4 days of culture): apparition de regroupements de ces cellules B 104 différenciées
- effet sur la pousse neuritique (dose) (cellules B104; increasing range of peptide concentrations): dépendant de la dose de peptide utilisée

- stabilité en solution aqueuse [1]: stabilité en solution améliorée
Compound: CC(C)NCCCC[C@H](NC(=O)[C@H](CO)NC(=O)[C@H](CS)NC(=O)[C@H](CO)NC(=O)[C@H](CO)NC(=O)[C@H](Cc1c[nH]c2ccccc12)NC(=O)CNC(=O)[C@H](CO)NC(=O)[C@@H](N)Cc1c[nH]c2ccccc12)C(=O)N[C@@H](CO)C(=O)O [SEQ ID N°6, W-S-G-W-S-S-C-S-K-(iPr)-S] (H-WSGWSSCS[Lys(iPr)]S-OH)
